TGI data for 14 compounds are collected here from PubChem BioAssay (NCI).

Molecules are shown by their SMILES.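 Five concentrations, 48 hours, 96-well plates. TGI: total growth inhibition.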 Where only a bound is given, the exact number is not on record here.

Assay in all cases: growth of human tumour cells (NCI), 48 h
In test [1] the test system is SNB-75 CNS.
Test [2] deals with SK-MEL-2 melanoma.
Test [3] deals with NCI-H522 lung.
Test [4] relates to OVCAR-5 ovarian.
Test [5] concerns A549 NSCLC.
The test system of test [6] is SK-OV-3 ovarian.
Test [7] has as its system TK-10 renal.
The test system of test [8] is UO-31 renal.
In test [9] the test system is HT29 colon.
The test system of test [10] is ACHN renal.

Turning to `CCN(CC)CCNC(=O)c1cn2c(ccc3sc4ccccc4c(=O)c32)n1`, the TGI is 32.6 µM in [1]; 38 µM in test [2]; 25.6 µM in test [3]; 21.7 µM in test [4]; 21 µM in test [5]; 25.5 µM in test [6]. The TGI in test [7] was 19.1 µM; in test [8], 21 µM; in test [9], 20.4 µM; in test [10], 18.6 µM.
Regarding `Cc1noc(NC2=CC(=O)C(=O)c3ccccc32)c1C`, the TGI in test [1] is 82.5 µM; in test [2], 5.8 µM; in test [3] it was 79.2 µM; in test [4] it was greater than 100 µM; in test [5] it was 55.3 µM; in test [6], greater than 100 µM. Besides, the TGI in [7] is greater than 100 µM; in test [8] it was greater than 100 µM; in test [9] it was 88 µM; in test [10], greater than 100 µM.
`O=C(O)/C(Cc1ccc([N+](=O)[O-])cc1)=N\O`: the TGI in test [2], in [3], in [4], in test [5], in test [6] and in [7] was greater than 100 µM in each case. The TGI in test [8], in [9] and in test [10] was greater than 100 µM in each case.
For `CC[C@H]1C=CCC[C@@]2(C[C@@H]3CC[C@H]4[C@@H](C(=O)OCCCCCCCCCCCCCCCC(=O)N(CCCN)C[C@@H](O)CCN)[C@@]5(CCC[C@@H](C)O5)NC(=[N+]34)N2)O1`, the TGI in test [2] was found to be 3.29 µM; in [3] it was 3.07 µM; in [4] it was 3.22 µM; in [5], 3.35 µM; in test [6] it was 3.19 µM; in [7], 3.04 µM. Moreover, the TGI is greater than 10 µM in test [8], 2.96 µM in test [9] and greater than 10 µM in test [10].
For `COc1ccc(CN=C(N)N)c2ccccc12`, the TGI in [1] was 55.2 µM; in test [2] it was 86.9 µM; in test [3] it was greater than 100 µM; in test [4], 73.4 µM; in [5], greater than 100 µM; in test [6] it was greater than 100 µM. The TGI in [7] is greater than 100 µM; in test [8] it was 87.9 µM; in [9], greater than 100 µM; in test [10], greater than 100 µM.
As to `CCOC(=O)CNc1nc(=O)c2c(=O)oc(Cl)cc2o1`, the TGI in test [1] was 24.7 µM; in test [2] it was 44.5 µM; in test [3], 17.3 µM; in [4], 38.7 µM; in test [5], 40.6 µM; in test [6] it was greater than 100 µM. Also, the TGI came to 28 µM in test [7], 25.4 µM in [8], 22.6 µM in [9] and 26.3 µM in test [10].
As to `CCCCCCCCCCCCCCCC(=O)N(CCCCCCCCCCC(=O)O)CC(O)C(O)C(OC1OC(CO)C(O)C(O)C1O)C(O)CO` (stereo unspecified), the TGI in test [1] was greater than 100 µM; in test [2], 43.5 µM; in test [3], greater than 100 µM; in test [4], greater than 100 µM; in [5], greater than 100 µM; in test [6], greater than 100 µM. In addition, the TGI in [7] is greater than 100 µM; in test [8], greater than 100 µM; in test [9], 42.8 µM; in test [10], greater than 100 µM.
Consider `CCOC(=O)C(NC(=O)c1ccccc1)(N1CCOCC1)C(F)(F)F` (stereo unspecified), for which the TGI in [1], in test [2], in [3], in [4], in test [5] and in [6] was greater than 100 µM in each case. Besides, the TGI in [7], in test [8], in [9] and in [10] was greater than 100 µM each time.
On to `O=CC12C3CCC1C2C(=O)C3` (stereo unspecified), for which the TGI in test [1], in test [2], in [3], in test [4], in test [5] and in test [6] was greater than 100 µM throughout. Besides, the TGI in test [7], in test [9] and in test [10] was greater than 100 µM throughout.
With `CC(C)C(N)=O`, the TGI in test [1], in [2], in test [3], in test [4], in [5] and in [6] was greater than 5000 µM throughout. Further, the TGI in test [7], in [8], in test [9] and in test [10] was greater than 5000 µM throughout.
Turning to `CCCCCCCCCCCCCCCCOC[C@@H](COC(c1ccccc1)(c1ccccc1)c1ccccc1)O[P+](=S)OC` (stereo partly specified), the TGI was determined as 29.6 µM in test [1]; 33.3 µM in [2]; 27.5 µM in test [3]; 28.7 µM in [4]; 21 µM in test [5]; 19.8 µM in [6]. In addition, the TGI in [7] was found to be 23.6 µM; in test [8], 30.1 µM; in test [9], 35.2 µM; in test [10], 29 µM.
Take `CC(C)C1=CC23CCC4C(C)(C(=O)O)CCCC4(C)C2CC1C1C(=O)N(c2ccccc2)C(=O)C13` (stereo unspecified): the TGI was greater than 100 µM in test [1]; 73.3 µM in [2]; greater than 100 µM in [3]; greater than 100 µM in test [4]; greater than 100 µM in [5]; greater than 100 µM in test [6]. For the same compound, the TGI in [7], in [8], in test [9] and in test [10] was greater than 100 µM in each case.
Consider `COc1ccc(N2C=Nn3c(nc4sc5c(c4c3=O)CCCC5)C2)cc1`, for which the TGI in test [1] is greater than 100 µM; in [2], 93.1 µM; in [3], greater than 100 µM; in test [4], greater than 100 µM; in test [5], greater than 100 µM; in test [6] it was greater than 100 µM. The TGI in [7] is greater than 100 µM; in [8], greater than 100 µM; in test [9], greater than 100 µM; in [10], 53.2 µM.
As for `COc1cc2cc(C(=O)N3CC(CCl)c4c3cc(N)c3ccccc43)[nH]c2c(OC)c1OC` (stereo unspecified), the TGI was less than 0.01 µM in [1]; less than 0.01 µM in [2]; less than 0.01 µM in test [3]; 1.4 µM in [5]; 0.248 µM in [6]; 2.32 µM in test [7]. Besides, the TGI in test [8] is less than 0.01 µM; in [9], 1.41 µM; in test [10], 0.108 µM.
